Experimental data reported in patent US9650360B2, “Anti-mycobacterial drugs against tuberculosis” (priority 2012, dated 2017).

Test system: Multidrug-Resistant Mycobacterium Tuberculosis (MDR-TB)
Experiment: microbe, parasite or virus in culture
Format: cell-based
Settings: read-out: minimum inhibitory concentration (MIC)

O=C(/C=C(\O)c1cc(Cc2c(F)cc(F)cc2F)cn(Cc2ccccc2F)c1=O)C(=O)N1CCN(c2cccc3ccccc23)CC1
MIC: < 1 µg/mL
